Measurements from US11420970B1 (NOVARTIS AG, priority 2019, dated 2022).
Like-named read-outs stand apart in the source and are kept apart here.

How the values were obtained:
[1] = tested on: cellular H3K36me2 level in thyroid carcinoma cell line CGTH-W-1 (NSD2 E1099K); assay: H3K36me2 cellular ELISA assay in CGTH-W-1 line; assay type: cell-based; details: Homo sapiens, CGTH-W-1, 72 h, read-out: H3K36me2 ELISA in CGTH-W-1
Procedure, shortened: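 CGTH-W-1 thyroid carcinoma cells (NSD2 E1099K gain-of-function) exposed to compound for 72 hours. Histone-bound plates probed for H3K36me2 and total H3 by chemiluminescent ELISA. Viability checked on a parallel plate with CellTiter-Glo.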

[2] = target: NSD2 [1-1365] (Homo sapiens (Human), UniProt O96028); assay: LC-MS/MS-based NSD2 enzymatic assay (SAH production); assay type: biochemical; details: read-out: NSD2 IC50
Chain of NSD2 [1-1365] (O96028 whole entry): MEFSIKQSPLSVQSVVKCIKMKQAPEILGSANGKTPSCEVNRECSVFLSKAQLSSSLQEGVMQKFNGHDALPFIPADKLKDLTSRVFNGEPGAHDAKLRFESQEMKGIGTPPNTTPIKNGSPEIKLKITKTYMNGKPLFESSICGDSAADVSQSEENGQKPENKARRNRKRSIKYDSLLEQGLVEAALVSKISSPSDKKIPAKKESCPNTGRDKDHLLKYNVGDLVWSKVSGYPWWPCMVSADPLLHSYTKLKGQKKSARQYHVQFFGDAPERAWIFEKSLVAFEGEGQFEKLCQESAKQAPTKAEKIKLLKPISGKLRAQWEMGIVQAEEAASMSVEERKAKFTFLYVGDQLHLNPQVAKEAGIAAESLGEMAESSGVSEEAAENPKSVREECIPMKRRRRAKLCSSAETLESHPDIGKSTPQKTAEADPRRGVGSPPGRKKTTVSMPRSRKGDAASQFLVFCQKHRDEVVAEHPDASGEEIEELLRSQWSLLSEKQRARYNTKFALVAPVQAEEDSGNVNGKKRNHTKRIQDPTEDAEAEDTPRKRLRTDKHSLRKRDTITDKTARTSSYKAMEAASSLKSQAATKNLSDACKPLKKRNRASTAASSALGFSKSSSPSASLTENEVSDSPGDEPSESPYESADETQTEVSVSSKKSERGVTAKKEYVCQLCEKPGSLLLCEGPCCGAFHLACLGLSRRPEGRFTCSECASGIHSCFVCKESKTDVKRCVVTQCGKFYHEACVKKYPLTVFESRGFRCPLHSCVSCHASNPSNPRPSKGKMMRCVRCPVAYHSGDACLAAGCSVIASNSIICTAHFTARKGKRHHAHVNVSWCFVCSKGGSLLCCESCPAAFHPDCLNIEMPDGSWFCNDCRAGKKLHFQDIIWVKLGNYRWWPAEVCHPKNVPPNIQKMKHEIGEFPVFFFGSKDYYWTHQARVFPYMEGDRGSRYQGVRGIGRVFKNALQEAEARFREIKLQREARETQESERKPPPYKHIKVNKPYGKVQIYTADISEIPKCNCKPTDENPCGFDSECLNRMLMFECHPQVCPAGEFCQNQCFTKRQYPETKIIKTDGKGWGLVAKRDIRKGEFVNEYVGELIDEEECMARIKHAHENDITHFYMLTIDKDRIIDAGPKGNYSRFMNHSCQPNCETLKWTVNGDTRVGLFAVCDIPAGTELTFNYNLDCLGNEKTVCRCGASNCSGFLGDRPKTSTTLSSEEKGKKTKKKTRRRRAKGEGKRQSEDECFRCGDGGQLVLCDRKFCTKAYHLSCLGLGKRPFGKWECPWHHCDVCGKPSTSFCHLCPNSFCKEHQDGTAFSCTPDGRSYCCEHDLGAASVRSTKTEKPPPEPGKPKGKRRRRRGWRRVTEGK
Procedure, shortened: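 Full-length NSD2 [1-1365] (8 nM final) with 1 μM SAM and 400 nM mouse-liver nucleosome in Tris pH 8.0 buffer; inhibitor preincubated 20 min with enzyme/SAM before nucleosome addition. Reaction 90 min at room temperature, TFA-quenched; SAH quantified by LC-MS/MS against d4-SAH internal standard and SAH standard curve.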

[3] = tested on: cellular H3K36me2 level in multiple myeloma cell line KMS11 (t(4;14)+); assay: H3K36me2 cellular ELISA assay in KMS11-Par line; assay type: cell-based; details: Homo sapiens, KMS-11, ELISA, read-out: H3K36me2 ELISA in KMS11-Par
Procedure, shortened: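 KMS11 cells were seeded a day ahead at 1,250 per well in Opti-MEM with B-27/N2, then treated with compound for 72 h. Histones were acid-extracted with 0.4M HCl, and H3K36me2 and total H3 were read by chemiluminescent ELISA. Viability was checked with CellTiter-Glo on a parallel plate in maintenance media.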

[4] = NSD2 biochemical activity, class symbols
[5] = KMS11-Par line (t(4;14)+), 72 hours treatment

Nc1ncnc2c1ncn2Cc1cc(-c2ccc(F)c(F)c2)ncc1N1CCCC(N)(C(=O)NC2CCOC2)C1 (stereo not drawn) [Example 85, 3-amino-1-(4-((6-amino-9H-purin-9-yl)methyl)-6-(3,4-difluorophenyl)pyridin-3-yl)-N-(tetrahydrofuran-3-yl)piperidine-3-carboxamide]
IC50 [1]: 2080 nM
IC50 [2, 4]: 10 to 1000 nM
IC50 [3, 5]: 6490 nM

CC(=C(F)F)[C@@]1(N)CCCN(c2cnc(-c3ccc(F)c(F)c3)cc2Cn2cnc3c(N)ncnc32)C1 [Example 293, (S)-9-((5-(3-amino-3-(1,1-difluoroprop-1-en-2-yl)piperidin-1-yl)-2-(3,4-difluorophenyl)pyridin-4-yl)methyl)-9H-purin-6-amine]
IC50 [1]: 1300 nM
IC50 [2]: 10 to 1000 nM
IC50 ([3]; KMS11-Par line, 72 hours): 3210 nM

Nc1ncnc2c1ncn2Cc1cc(-c2ccc(F)c(Cl)c2)ncc1N1CCC[C@](N)([C@H](O)C(F)F)C1 [Example 139, (S)-1-((R)-3-amino-1-(4-((6-amino-9H-purin-9-yl)methyl)-6-(3-chloro-4-fluorophenyl)pyridin-3-yl)piperidin-3-yl)-2,2-difluoroethan-1-ol]
IC50 [1]: 669 nM
IC50 [2, 4]: 10 to 1000 nM
IC50 [3, 5]: 2840 nM

Nc1ncnc2c1ncn2Cc1cc(-c2ccc(F)c(F)c2F)ncc1N1CCC[C@](N)([C@@H](O)C(F)F)C1 [Example 172, (R)-1-((R)-3-amino-1-(4-((6-amino-9H-purin-9-yl)methyl)-6-(2,3,4-trifluorophenyl)pyridin-3-yl)piperidin-3-yl)-2,2-difluoroethan-1-ol]
IC50 [1]: 1200 nM
IC50 [2]: 10 to 1000 nM
IC50 ([3]; KMS11-Par line, 72 hours): 8930 nM

COc1ccc(-c2cc(Cn3cnc4c(N)ncnc43)c(N3CCC[C@](N)(C(O)C(F)F)C3)cn2)c(C(F)(F)F)c1 (stereo in doubt) [Example 166, (S)-1-((R)-3-amino-1-(4-((6-amino-9H-purin-9-yl)methyl)-6-(4-methoxy-2-(trifluoromethyl)phenyl)pyridin-3-yl)piperidin-3-yl)-2,2-difluoroethan-1-ol]
IC50 [1]: 432 nM
IC50 [2, 4]: 1 to 10 nM
IC50 [3, 5]: 8510 nM

Nc1ncnc2c1ncn2Cc1cc(-c2ccc(F)c(F)c2)ncc1N1CCC[C@](N)(c2cccc(Cl)n2)C1 [Example 200, (R)-9-((5-(3-amino-3-(6-chloropyridin-2-yl)piperidin-1-yl)-2-(3,4-difluorophenyl)pyridin-4-yl)methyl)-9H-purin-6-amine]
IC50 [1]: 180 nM
IC50 [2]: 1 to 10 nM
IC50 ([3]; KMS11-Par line, 72 hours): 330 nM

Nc1ncnc2c1ncn2Cc1cc(-c2ccc(F)cc2)ncc1N1CCC[C@](N)(c2ccc(F)c(Cl)n2)C1 [Example 221, (R)-9-((5-(3-amino-3-(6-chloro-5-fluoropyridin-2-yl)piperidin-1-yl)-2-(4-fluorophenyl)pyridin-4-yl)methyl)-9H-purin-6-amine]
IC50 [1]: 269 nM
IC50 [2]: 1 to 10 nM
IC50 ([3]; KMS11-Par line, 72 hours): 1290 nM

COc1ccc(-c2cc(Cn3cnc4c(N)ncnc43)c(N3CCC[C@](N)([C@@H](C)O)C3)cn2)cc1F [Example 90, (R)-1-((R)-3-amino-1-(4-((6-amino-9H-purin-9-yl)methyl)-6-(3-fluoro-4-methoxyphenyl)pyridin-3-yl)piperidin-3-yl)ethan-1-ol]
IC50 [1]: 239 nM
IC50 [2, 4]: 1 to 10 nM
IC50 [3, 5]: 432 nM

Cn1ccc(C[C@@]2(N)CCCN(c3cnc(-c4ccc(F)c(F)c4)cc3Cn3cnc4c(N)ncnc43)C2)n1 [Example 56, (S)-9-((5-(3-amino-3-((1-methyl-1H-pyrazol-3-yl)methyl)piperidin-1-yl)-2-(3,4-difluorophenyl)pyridin-4-yl)methyl)-9H-purin-6-amine]
IC50 [1]: 273 nM
IC50 [2, 4]: 1 to 10 nM
IC50 [3, 5]: 234 nM

COc1ccc(-c2cc(Cn3cnc4c(N)ncnc43)c(N3CCC[C@](N)([C@H](O)C(F)F)C3)cn2)cc1Cl [Example 125, (S)-1-((R)-3-amino-1-(4-((6-amino-9H-purin-9-yl)methyl)-6-(3-chloro-4-methoxyphenyl)pyridin-3-yl)piperidin-3-yl)-2,2-difluoroethan-1-ol]
IC50 [1]: 775 nM
IC50 [2, 4]: 1 to 10 nM
IC50 [3, 5]: 3950 nM

C[C@H](F)c1cccc([C@@]2(N)CCCN(c3cnc(-c4ccc(F)cc4)cc3Cn3cnc4c(N)ncnc43)C2)n1 [Example 183, 9-((5-((R)-3-amino-3-(6-((S)-1-fluoroethyl)pyridin-2-yl)piperidin-1-yl)-2-(4-fluorophenyl)pyridin-4-yl)methyl)-9H-purin-6-amine]
IC50 [1]: 159 nM
IC50 [2]: 10 to 1000 nM
IC50 ([3]; KMS11-Par line, 72 hours): 455 nM

COc1ccc(-c2cc(Cn3cnc4c(N)ncnc43)c(N3CCC[C@](N)(c4ccc(F)c(Cl)n4)C3)cn2)cc1 [Example 216, (R)-9-((5-(3-amino-3-(6-chloro-5-fluoropyridin-2-yl)piperidin-1-yl)-2-(4-methoxyphenyl)pyridin-4-yl)methyl)-9H-purin-6-amine]
IC50 [1]: 1880 nM
IC50 [2]: 10 to 1000 nM
IC50 ([3]; KMS11-Par line, 72 hours): 2570 nM

Nc1ncnc2c1ncn2Cc1cc(-c2ccc(Cl)cc2F)ncc1N1CCC[C@](N)([C@H](O)C(F)F)C1 [Example 148, (S)-1-((R)-3-amino-1-(4-((6-amino-9H-purin-9-yl)methyl)-6-(4-chloro-2-fluorophenyl)pyridin-3-yl)piperidin-3-yl)-2,2-difluoroethan-1-ol]
IC50 [1]: 671 nM
IC50 [2, 4]: 10 to 1000 nM
IC50 [3, 5]: 2160 nM

Nc1ncnc2c1ncn2Cc1cc(-c2ccc(F)c(F)c2)ncc1N1CCCC(N)(c2ccc(O)c(F)n2)C1 (stereo not drawn) [Example 214, 6-(3-amino-1-(4-((6-amino-9H-purin-9-yl)methyl)-6-(3,4-difluorophenyl)pyridin-3-yl)piperidin-3-yl)-2-fluoropyridin-3-ol]
IC50 [1]: 444 nM
IC50 [2]: 10 to 1000 nM
IC50 ([3]; KMS11-Par line, 72 hours): 2430 nM

Cn1ncc2cc(-c3cc(Cn4cnc5c(N)ncnc54)c(N4CCC[C@](N)([C@@H](O)C(F)F)C4)cn3)c(F)cc21 [Example 123, (R)-1-((R)-3-amino-1-(4-((6-amino-9H-purin-9-yl)methyl)-6-(6-fluoro-1-methyl-1H-indazol-5-yl)pyridin-3-yl)piperidin-3-yl)-2,2-difluoroethan-1-ol]
IC50 [1]: 1490 nM
IC50 [2, 4]: 1 to 10 nM
IC50 [3, 5]: 7850 nM

CC[C@H](C)C(=O)[C@@]1(N)CCCN(c2cnc(-c3ccc(F)c(F)c3)cc2Cn2cnc3c(N)ncnc32)C1 [Example 101, (S)-1-((R)-3-amino-1-(4-((6-amino-9H-purin-9-yl)methyl)-6-(3,4-difluorophenyl)pyridin-3-yl)piperidin-3-yl)-2-methylbutan-1-one]
IC50 [1]: 40 nM
IC50 [2, 4]: 1 to 10 nM
IC50 [3, 5]: 34 nM

Nc1ncnc2c1ncn2Cc1cc(-c2ccc(F)c(F)c2)ncc1N1CCCC(N)(C(=O)N2CCCCC2)C1 (stereo not drawn) [Example 86, (3-amino-1-(4-((6-amino-9H-purin-9-yl)methyl)-6-(3,4-difluorophenyl)pyridin-3-yl)piperidin-3-yl)(piperidin-1-yl)methanone]
IC50 [1]: 8690 nM
IC50 [2, 4]: 10 to 1000 nM
IC50 [3, 5]: 33300 nM

Nc1ncnc2c1ncn2Cc1cc(-c2ccc(F)c(F)c2)ncc1N1CCCC(N)(C(=O)C2CCOCC2)C1 (stereo not drawn) [Example 108, (3-amino-1-(4-((6-amino-9H-purin-9-yl)methyl)-6-(3,4-difluorophenyl)pyridin-3-yl)piperidin-3-yl)(tetrahydro-2H-pyran-4-yl)methanone]
IC50 [1]: 772 nM
IC50 [2, 4]: 10 to 1000 nM
IC50 [3, 5]: 1960 nM
